Measured values taken from US20260335323A1, “CHIMERIC MOLECULE” (UCL Business Ltd, priority 2023, published 2026).

Tested on: SH-SY5Y cells
Assay: TMRM assay of mitochondrial membrane potential
Assay type: cell-based, human
Description: FIG. 1. The structure of AUTAC-4 is shown in (A). (B) Representative images of SH-SY5Y cells stably expressing the mito-mKeima reporter treated with AUTAC4 for 18 h. Nuclei were stained with Hoechst 33342, healthy mitochondria are shown in green and mitochondria in lysosomes are shown in red. (C-E) Fold change in mitophagy index over time after treatment with increasing concentrations of AUTAC4 under treatment with DMSO (C), 3 mM CCCP (D) or 0.1/0.1 mM antimycin/oligomycin (E), also for 18 h. (F) Quantification of changes in mitochondrial membrane potential over time (DYm) by measuring the TMRM relative fluorescence intensity (RFI) treated with DMSO, 10 mM CCCP, 10 mM and 20 mM AUTAC4. Normalised to number of nuclei. (G) Representative western blot of SH-SY5Y cells treated with DMSO, 10 mM AUTAC4 or 10 mM AUTAC4+0.1/0.1 mM antimycin/oligomycin for 18 h and, probed for p62, b-actin and Tom20. Quantifications of western blot for changes in Tom20 and p62 levels shown in (H) and (I), respectively. (J) Representative images of PANC-1 cells stably expressing the mCherry-EGFP-LC3 tandem reporter. Nuclei stained with Hoechst 33342, autophagosomes are shown in the EGFP channel and autolysosomes in the mCherry channel. Fold change in the number of autophagosome (K) and autolysosome (L) puncta in AUTAC4 treated cells. […] For mito-mKeima experiments, statistics were calculated by Two-way ANOVA with Tukey's multiple comparisons test. For western blots, TMRM and LC3 tandem reporter assay, statistics were calculated with one-way ANOVA with Tukey's multiple comparisons test.
FIG. 5. […] (B) Quantification of the colocalised ULK1 to TOM20 spot area of PANC-1 cells treated with DMSO, 5 mM CCCP, 10 mM BL-918, 10 mM BL-918+5 mM CCCP, […] NZ-65, […] NZ-65+5 mM CCCP, […] NZ-66, […] NZ-66+5 mM CCCP, 50 mM TSPO ligand, […] NZ-65+50 mM TSPO ligand, […] NZ-66+50 mM TSPO ligand. (C) Western blot of SH-SY5Y cells treated with 1 mM ULKTACs, 5 mM CCCP or both, probed for Mfn2, b-Actin and Tom20—quantifications are shown in (D) for Mfn2, normalised to Actin. […]

Row | SMILES | mitochondrial membrane potential (TMRM)
1 | O=C(Nc1ccc(F)cc1F)[C@H](NC(=S)Nc1cc(C(F)(F)F)cc(C(F)(F)F)c1)c1ccccc1 [BL-918, reference compound] | depolarisation of the outer mitochondrial membrane at higher concentrations
2 | O=C(Nc1cc(C(F)(F)F)cc(C(F)(F)F)c1)N[C@@H](C(=O)Nc1ccc(F)cc1F)c1ccc(OCc2cn(CCOCCOCCNC(=O)C(=O)c3c(-c4ccccc4)[nH]c4ccccc34)nn2)cc1 [NZ-65, (R)-2-(3-(3,5-bis(trifluoromethyl)phenyl)ureido)-N-(2,4-difluorophenyl)-2-(4-((1-(2-(2-(2-(2-oxo-2-(2-phenyl-1H-indol-3-yl)acetamido)ethoxy)ethoxy)ethyl)-1H-1,2,3-triazol-4-yl)methoxy)phenyl) acetamide] | neither NZ-65 nor NZ-66 showed any effect
3 | O=C(Nc1cc(C(F)(F)F)cc(C(F)(F)F)c1)N[C@@H](C(=O)Nc1ccc(F)cc1F)c1ccc(OCc2cn(CCCCCCNC(=O)C(=O)c3c(-c4ccccc4)[nH]c4ccccc34)nn2)cc1 [NZ-66, (R)-2-(3-(3,5-bis(trifluoromethyl)phenyl)ureido)-N-(2,4-difluorophenyl)-2-(4-((1-(6-(2-oxo-2-(2-phenyl-1H-indol-3-yl)acetamido)hexyl)-1H-1,2,3-triazol-4-yl)methoxy)phenyl) acetamide] | neither NZ-65 nor NZ-66 showed any effect
